In brackets after ≈: the same amount, converted by molar mass.
Key:
[1] = Intrinsic clearance in human liver microsomes; format: ADME, Microsome; conditions: read-out: CLH
Cannabinoid receptor 1 [2] = target: T1, Cannabinoid receptor 1 (Homo sapiens, UniProt P21554); experiment: Agonist activity at CB1 receptor; format: functional
[3] = Intrinsic clearance in rat liver microsomes; format: ADME, Microsome; conditions: read-out: CLH
[4] = Oral bioavailability in rat; format: ADME, organism-based; conditions: in vivo
Cannabinoid receptor 2 = Cannabinoid receptor 2 (Homo sapiens, UniProt P34972); experiment: Displacement of [3H]CP 55,940 from human CB2 receptor expressed in insect sf9 membranes; format: cell membranes
Cannabinoid receptor 1 [5] = target: T1, Cannabinoid receptor 1; experiment: Displacement of [3H]CP 55,940 from human CB1 receptor expressed in insect sf9 membranes; format: cell membranes
[6] = Solubility of the compound at pH 7.4; format: physicochemical; conditions: buffer
[7] = Ratio of drug level in brain to plasma in mouse; format: ADME, organism-based; conditions: read-out: BPR
Rattus norvegicus [8] = experiment: Ratio of MED for toxicity in sc dosed rat assessed as catalepsy to ED50 for anti-allodynic activity in sc dosed rat Chung von Frey model of neuropathic pain; format: functional
Rattus norvegicus [9] = experiment: Analgesic activity in sc dosed rat Chung von Frey model of neuropathic pain assessed as anti-allodynic effect against mechanical stimulus; format: functional
Rattus norvegicus [10] = experiment: Toxicity in sc dosed rat assessed as catalepsy by ring immobility test; format: organism-based; conditions: in vivo

T1 sequence (P21554 whole entry): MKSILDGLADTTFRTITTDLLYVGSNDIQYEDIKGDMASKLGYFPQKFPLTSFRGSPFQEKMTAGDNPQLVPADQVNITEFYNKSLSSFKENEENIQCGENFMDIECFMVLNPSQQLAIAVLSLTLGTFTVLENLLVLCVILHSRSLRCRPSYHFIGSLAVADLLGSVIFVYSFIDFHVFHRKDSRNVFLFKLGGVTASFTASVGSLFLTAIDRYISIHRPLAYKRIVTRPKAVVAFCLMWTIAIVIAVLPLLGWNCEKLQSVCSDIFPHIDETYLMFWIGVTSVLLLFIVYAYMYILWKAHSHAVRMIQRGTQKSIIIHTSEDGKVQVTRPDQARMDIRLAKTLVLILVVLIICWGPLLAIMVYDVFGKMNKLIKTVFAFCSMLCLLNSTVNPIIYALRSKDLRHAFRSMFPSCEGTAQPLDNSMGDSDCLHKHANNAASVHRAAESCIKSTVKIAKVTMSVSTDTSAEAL
Sequence of Cannabinoid receptor 2 (P34972 whole entry): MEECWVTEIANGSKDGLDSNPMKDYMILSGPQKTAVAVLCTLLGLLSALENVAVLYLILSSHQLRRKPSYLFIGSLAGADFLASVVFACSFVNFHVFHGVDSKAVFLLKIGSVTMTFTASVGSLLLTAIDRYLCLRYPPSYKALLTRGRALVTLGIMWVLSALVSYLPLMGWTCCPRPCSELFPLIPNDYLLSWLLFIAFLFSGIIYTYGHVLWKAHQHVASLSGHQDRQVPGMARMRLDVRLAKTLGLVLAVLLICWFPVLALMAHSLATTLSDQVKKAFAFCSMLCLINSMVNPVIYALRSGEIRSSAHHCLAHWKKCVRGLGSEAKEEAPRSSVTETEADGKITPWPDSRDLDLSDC

Structure (SMILES) | microsomal CLint [1] [µL/min/mg] | EC50 (Cannabinoid receptor 1 [2]) [nM] | microsomal CLint [3] [µL/min/mg] | pEC50 (Cannabinoid receptor 1 [2]) | bioavailability [4] [%] | Ki (Cannabinoid receptor 2) [nM] | Ki (Cannabinoid receptor 1 [5]) [nM] | solubility [6] [µg/mL] | Kp [7] | Ratio (Rattus norvegicus [8]) | ED50 (Rattus norvegicus [9]) [µmol/kg] | MED (Rattus norvegicus [10]) [µmol/kg]
NC(=O)CN1CCN(Cc2nc(-c3cn(CC4CCOCC4)c4c(Cl)cccc34)ns2)CC1 | 23 | 63.1 | 23 |  |  |  |  |  |  |  |  | 
NC(=O)CN1CCN(Cc2nc(-c3cn(CC4CCS(=O)(=O)CC4)c4c(Cl)cccc34)ns2)CC1 | < 12 |  | < 12 | 6.7 |  |  |  |  |  |  |  | 
COc1cccc2c(-c3nsc(CN4CCN(CC(N)=O)CC4)n3)cn(CC3CCOCC3)c12 | 17 | 79.4 | 17 |  | 40 | 15.8 | 6.31 | 5 (≈ 10.3 µM) | 0.18 |  |  | 
CN(CC(N)=O)Cc1nc(-c2cn(CC3CCS(=O)(=O)CC3)c3c(Cl)cccc23)ns1 | 25 | 158 | 52 |  |  |  |  |  |  |  |  | 
O=C(NCCO)C1CCN(Cc2nc(-c3cn(CC4CCS(=O)(=O)CC4)c4c(Cl)cccc34)no2)CC1 | < 12 | 1000 | < 12 |  |  |  |  |  |  |  |  | 
CN(CC(N)=O)Cc1nc(-c2cn(CC3CCS(=O)(=O)CC3)c3c(Cl)cccc23)no1 | 26 | 158 | 33 |  |  |  |  |  |  |  |  | 
O=C(NCCO)[C@H]1CCCN(Cc2nc(-c3cn(CC4CCS(=O)(=O)CC4)c4c(Cl)cccc34)ns2)C1 | 47 | 20 | 32 |  | 1 | 20 | 31.6 | 45 (≈ 79.5 µM) | 0.03 |  |  | 
O=C(NCCO)C1CCN(Cc2nc(-c3cn(CC4CCOCC4)c4c(Cl)cccc34)no2)CC1 | 16 |  | 18 |  | 8 | 20 | 3.98 |  | 0.03 |  |  | 
Cc1c(C(=O)c2cccc3ccccc23)c2cccc3c2n1[C@H](CN1CCOCC1)CO3 [WIN-552122] |  |  |  |  | 0 |  |  |  | 1.3 | 3.7 | 1.6 | 5.7
O=C(NCCO)C1CCN(Cc2nc(-c3cn(CC4CCOCC4)c4c(Cl)cccc34)ns2)CC1 | 18 | 79.4 | 49 |  |  |  |  |  |  |  |  | 

Reference: ChEMBL document CHEMBL2016544, “Low brain penetrant CB1 receptor agonists for the treatment of neuropathic pain” (Bioorg Med Chem Lett, 2012)
